Source: patent publication US10508092B2, “Synthesis of novel analogs of diptoindonesin G, compounds formed thereby, and pharmaceutical compositions containing them” (Wisconsin Alumni Research Foundation, priority 2016, dated 2019)
“And” between values parts separate entries of the source, which are not always exact repeats. Identical values can stand only once.

How the values were obtained:
ERα = ERα transcriptional activity in MCF7 cells; type: cell-based, human
[1] = Toxicity observations in treated mice (AST ELISA, gross tissue, injection site); type: in vivo
Protocol: Dip G was synthesized as described and formulated for the in vivo treatment. Dip G was prepared by dissolving the stock powder in 100% DMSO to a final concentration of 50 mg/ml. This stock solution was then diluted 1:5 into a 40% polyethylene glycol (PEG300)/40% normal saline (0.9% NaCl) solution to a final concentration of 20% Dip G solution. […] To determine MTD, escalating doses of Dip G dissolved in the aforementioned formulation were injected retro-orbitally or by oral gavage daily, five days out of seven to determine the MTD. […] (Data not shown.) Dip G was intra-tumorally delivered to ERα-positive T47D xenografted mice three times a week and the tumors were monitored for three weeks. […] (AST ELISAs are available commercially from several suppliers, including Abcam, Cambridge, Mass.)
(§1) Mice were monitored twice weekly for weight changes and tumor growth (measured in diameter and volume) with calipers. Following tumors reaching an appropriate size (˜5 mm in diameter, taking approximately 3 months after grafting), intra-tumoral injections were begun with vehicle containing 20 mg/kg of Dip G or control vehicle in a total volume of 50 μL split between tumors on each mammary fat pad. Three mice (6 tumors) received control injections and eight (16 tumors) received Dip G. Injections were administered 3 times per week with at least one day of rest between injections, for a total of 10-12 injections. Cohorts were sacrificed by cage individually in numerical order, beginning with the 10th injection and sacrificing one cage per injection for pharmacokinetic time points from that injection onward. In mice with very small tumors, dosing was switched from intra-tumoral to subcutaneous at later time points.

[2] = system: estrogen receptor β (ERβ); conditions: breast cancer, Zhao et al. 2015; cited from earlier work
[3] = system: estrogen receptor α (ERα); conditions: breast cancer, Zhao et al. 2015; cited from earlier work
[4] = Pharmacokinetics (plasma concentration by HPLC and LC/MS) in mice; type: in vivo; conditions: mouse
[5] = system: mouse splenic lymphocytes (T cells); conditions: concanavalin A induced proliferation of mouse splenic lymphocytes; cited from earlier work
[6] = system: estrogen receptor β (ERβ); assay: Western blot of FLAG-ERβ levels in Hs578T-ERβLuc Dox-inducible cells; type: cell-based, human; conditions: Hs578T-ERβLuc Dox-inducible line, 10 μM, 5 days, Western blot (anti-FLAG)
Protocol: FIGS. 2A, 2B, and 2C together depict the biological activity of the subject compounds on estrogen receptor β (ERβ) levels in human breast cancer cells.
The biological activity of these four analogs were then compared with the parent compound Dip G following our previous protocol (Zhao et al., supra). See FIGS. 1A, 1B, 1C, 2A, 2B, and 2C. Cells were treated with each compound at 10 μM concentration in order to evaluate how well each modified the stability of ERα and ERβ.
MCF7 cells were treated with Dip G and analogs for 24 hours before harvesting. Hs578T-tet-on-ERβ cells (ATCC HTB-126; American Type Culture Collection, Manassas, Va.) were treated with doxycycline for 24 hours to induce ERβ expression. Then the cells were treated with compounds for 5 days before harvesting. 15 μg of total cell lysates were resolved on SDS-PAGE and Western blot analyses were performed as previously described using ERα antibody (HC-20, Santa Cruz Biotechnology, Inc., Dallas, Tex.) and anti-FLAG antibody (F7425, Sigma-Aldrich Co., LLC, St. Louis, Mo.) for ERβ.^3

[7] = system: murine leukemia P-388 cells; conditions: cited from earlier work
T47D xenograft tumor = T47D xenograft tumor growth in mice, intra-tumoral dosing; type: in vivo, mouse
Protocol: Dip G inhibited growth of T47D xenograft tumor in vivo. Dip G was synthesized as described and formulated for the in vivo treatment. Dip G was prepared by dissolving the stock powder in 100% DMSO to a final concentration of 50 mg/ml. This stock solution was then diluted 1:5 into a 40% polyethylene glycol (PEG300)/40% normal saline (0.9% NaCl) solution to a final concentration of 20% Dip G solution. The maximum tolerated dose (MTD) of Dip G was determined to be 50 mg/kg by oral and 20 mg/kg by retro-orbital injection in mouse models. To determine MTD, escalating doses of Dip G dissolved in the aforementioned formulation were injected retro-orbitally or by oral gavage daily, five days out of seven to determine the MTD. […] (Data not shown.) Dip G was intra-tumorally delivered to ERα-positive T47D xenografted mice three times a week and the tumors were monitored for three weeks. […] Control-treated tumors were 70% of original size, while tumors (n=16) treated with Dip G were 46% of original size (FIG. 3). Under these treatment conditions, some Dip G-treated tumors completely regressed. […] (AST ELISAs are available commercially from several suppliers, including Abcam, Cambridge, Mass.)
Diptoindonesin G (Dip G) was obtained from the small molecule screening facility. Dip G was prepared by dissolving the stock powder in 100% DMSO to a final concentration of 50 mg/mL. This stock solution was then diluted 1:5 into a 40% polyethylene glycol (PEG 300)/40% normal saline (0.9% NaCl) solution to a final concentration of 20% Dip G solution. Vehicle was prepared identically, substituting DMSO instead of Dip G solution. PEG and saline were filtered at […] prior to use to ensure sterility.
Twelve Foxn1-nu homozygous mice were obtained from The Jackson Laboratory (Bar Harbor, Me.). Mice were randomized to control or active treatment prior to estrogen pellet placement. After allowing time for acclimatization, estrogen pellets were surgically inserted into the test mice, subcutaneously on the back. The skin at the site of surgery was prepared by washing with povidone iodine, allowing a three-minute contact time. Surgery was performed in a laminar flow hood while mice were under anesthesia. Incisions of less than 1 cm were made low in the back using a short scissors. Slow-release estrogen pellets (0.05 mg/60 day release) were implanted in each incision. Wounds were sealed with “VETBOND”®-brand surgical adhesive (3M Company, St. Paul, Minn.). At the same time, the mice were injected with 10^7 T-47D cells (ATCC HTB-133) twice, once in each mammary fat pad underneath the leg with 100 uL of fluid per injection site, using 25G needles.
as §1

[8] = individual tumor, 20 mg/kg intra-tumoral 3 times per week, 20 mg/kg

## O=C1c2c(O)cc(O)cc2-c2c(-c3ccc(O)cc3)oc3cc(O)cc1c23 [Dip G, diptoindonesin G]
ERα
  ERα transcriptional activity: decreases ERα transcriptional activity
[1]; AST ELISA assay
  liver toxicity: undetectable
[1]; aspartate aminotransferase ELISA, treated xenograft mice
  AST activity: around 70 milliunits/mL
[1]; high concentrations
  toxicity in vivo: No obvious toxicity
[1]; intra-tumoral injection, not observed with vehicle only
  signs around the tumor and the site of injection: subcutaneous bleeding, bruising, and discoloration
[1]; liver, lung, kidney, brain, and heart
  gross tissue damage: no gross tissue damages were observed
[2]
  stability of ERβ: increases the stability
[3]
  stability of ERα: decreases the stability
[4]
  half-life: 1 h
[5]
  immunosuppressant activity: immunosuppressant activity
[6]
  ERβ stability: strongly stabilized
[7]
  anti-proliferation effect: anti-proliferation effect
T47D xenograft tumor; T47D xenograft, 20 mg/kg intra-tumoral 3 times per week, 21 days, n=16 tumors, control 70%
  tumor size as % of original size: 46%
T47D xenograft tumor; T47D xenograft, 12 of 16 tumors, control 17%, p=0.023
  responders (tumors decreasing by 50% or more): 75%
T47D xenograft tumor; T47D xenograft, 21 days, versus vehicle-treated controls
  xenografted tumor growth: strongly inhibited
T47D xenograft tumor; T47D xenograft, at study completion, n=16 tumors, control 30%
  decrease in tumor volume: 54%
T47D xenograft tumor; [8]
  Tumor Volumes, Day 3: 113.1 mm^3 and 29.8 mm^3 and 71.4 mm^3 and 25.7 mm^3 and 69.6 mm^3 and 17.2 mm^3 and 126.0 mm^3 and 79.8 mm^3 and 144.9 mm^3 and 40.7 mm^3 and 43.3 mm^3 and 70.7 mm^3 and 30.8 mm^3 and 15.1 mm^3 and 149.4 mm^3 and 68.9 mm^3
  Tumor Volumes, Day 5: 100.0 mm^3 and 34.7 mm^3 (2×) and 36.0 mm^3 and 58.8 mm^3 (2×) and 23.1 mm^3 and 108.0 mm^3 and 84.7 mm^3 and 152.5 mm^3 and 51.6 mm^3 and 44.0 mm^3 and 36.1 mm^3 and 18.9 mm^3 and 111.6 mm^3 and 87.7 mm^3
  Tumor Volumes, Day 8: 74.1 mm^3 and 20.0 mm^3 and 26.0 mm^3 and 14.5 mm^3 and 52.9 mm^3 and 14.0 mm^3 and 65.0 mm^3 and 55.0 mm^3 and 99.1 mm^3 and 32.8 mm^3 and 46.6 mm^3 and 55.2 mm^3 and 20.7 mm^3 and 21.8 mm^3 and 43.6 mm^3 and 40.3 mm^3
  Tumor Volumes, Day 10: 106.2 mm^3 and 73.0 mm^3 and 39.2 mm^3 and 37.6 mm^3 and 64.8 mm^3 and 28.1 mm^3 and 105.6 mm^3 and 95.3 mm^3 and 123.0 mm^3 and 49.0 mm^3 and 56.1 mm^3 and 58.2 mm^3 and 32.9 mm^3 and 44.5 mm^3 and 63.6 mm^3 and 67.7 mm^3
  Tumor Volumes, Day 12: 225.3 mm^3 and 33.6 mm^3 and 34.5 mm^3 and 18.5 mm^3 and 77.2 mm^3 and 13.9 mm^3 and 123.6 mm^3 and 0.5 mm^3 (2×) and 97.7 mm^3 and 48.7 mm^3 and 49.0 mm^3 and 63.6 mm^3 and 29.4 mm^3 and 23.1 mm^3 and 189.2 mm^3
  Tumor Volumes, Day 15: 81.6 mm^3 and 41.6 mm^3 and 35.3 mm^3 and 32.0 mm^3 and 78.0 mm^3 and 19.7 mm^3 and 72.5 mm^3 and 37.0 mm^3 and 62.5 mm^3 and 22.9 mm^3 and 35.4 mm^3 and 53.0 mm^3 and 22.0 mm^3 and 20.1 mm^3 and 92.5 mm^3 and 49.6 mm^3
  Tumor Volumes, Day 19: 91.9 mm^3 and 38.8 mm^3 and 12.0 mm^3 and 19.7 mm^3 and 45.6 mm^3 and 11.5 mm^3 and 58.8 mm^3 and 28.7 mm^3 and 90.9 mm^3 and 15.6 mm^3 and 24.6 mm^3 and 35.7 mm^3 (2×) and 14.9 mm^3 and 9.3 mm^3 and 58.2 mm^3
  Tumor Volumes, Day 23: 0.5 mm^3 and 12.2 mm^3 and 9.1 mm^3 and 29.7 mm^3 and 81.5 mm^3 and 10.3 mm^3 and 51.9 mm^3 and 13.1 mm^3 and 7.9 mm^3 and 9.5 mm^3 and 28.1 mm^3 and 29.8 mm^3 and 18.5 mm^3 and 10.1 mm^3 and 34.2 mm^3 and 14.9 mm^3
T47D xenograft tumor; individual tumor, baseline, T47D xenograft
  Tumor Volumes, Day 0: 75.1 mm^3 and 40.3 mm^3 and 39.7 mm^3 and 71.3 mm^3 (2×) and 50.8 mm^3 and 25.4 mm^3 and 80.2 mm^3 (2×) and 96.2 mm^3 and 24.9 mm^3 and 70.2 mm^3 and 29.6 mm^3 and 23.1 mm^3 and 47.1 mm^3 and 52.9 mm^3
